Results reported in US20250270170A1, “2,3-DIMETHOXY-5-METHYL-1,4-BENZOQUINONE ALKYL ALCOHOL DERIVATIVE AND USE THEREOF” (BEIJING ANJIANXI BIO-MEDICAL TECHNOLOGY CO., LTD., priority 2021, published 2025).
Where “and” joins values, the source holds several entries; their conditions need not be identical. Equal values may be shown once. Entries after “also recorded” stand apart in the source; their conditions may differ. Marks after values point to notes of the source that are not given here.

Legend:
Assay type in all cases: in vivo, nude mice
[1] = test system: VEGF/VEGFR/p-VEGFR and other proteins in NCI-N87 transplanted tumor tissues; assay: Example 4: Western blot of NCI-N87 transplanted tumor tissue proteins; settings: Western blot grayscale vs blank solvent group, compound of formula (I) 2 mg/kg
Experimental: Western Blot technology was used to quantitatively detect the expression of VEGF/VEGFR, Survivin and other proteins in tumor tissues. […] In this study, 50 μg of tumor tissue proteins were added to each well, and the working concentrations of the antibodies were diluted according to the instructions. Briefly: the tumor tissue was taken, lysed with an RIPA protein lysis solution containing 1% PMSF and mixed protease inhibitors, and centrifuged at 12000×g for 20 min to take the supernatant; the concentration of proteins was detected by BCA method; 10% SDS-PAGE gel electrophoresis was performed; the proteins from SDS-PAGE gel were transfered to a PVDF membrane by semi-dry […]; the membrane was blocked with a fast blocking buffer for 10 minutes, and a primary antibody at corresponding working concentration was added, and incubated at 4° C. overnight; the membrane was washed with TBST for 3 times, and incubated with a secondary antibody at room temperature for 1 h; after washing the membrane three times, an image was developed and saved, and the grayscale values were analyzed with Image lab; the anti-Vinculin antibody was used as an internal reference control antibody.
The grayscale of the Western blot bands were calculated with Image J software, and Graphpad Prism 5 was used for related statistical processing. A two-sided t-test was used for comparison between two groups. P>0.05 means no significance (NS), P<0.05 is *, […], and P<0.001 is ***.

[2] = test system: human gastric cancer NCI-N87 transplanted tumor; assay: Example 7: tumor growth in NCI-N87 transplanted tumor model, alone and combined with DDP
[3] = Example 7: serum UREA content
[4] = test system: human colorectal cancer HT29 transplanted tumor; assay: Example 10: tumor growth in HT-29 transplanted tumor model; settings: for Mean tumor volume ± SE / tumor growth inhibition rate: HT-29 model, DDP 5 mg/kg i.p. QW × 3, R01 18 mg/kg i.g. BID × 28
Experimental: The human colorectal cancer cell lines HT-29 were obtained from the Cell Bank of the Type Culture Collection Committee of Chinese Academy of Sciences (CAS, cryopreserved in liquid nitrogen in this assay).
HT-29 cells were routinely cultured in a McCoy […] containing 10% fetal bovine serum under culture conditions of 37° C. and 5% CO2. The cells were digested with 0.25% trypsin, and passaged according to the cell growth conditions with a passaging ratio of 1:3 to 1:4.
On D1 of the assay, the HT-29 cells in the logarithmic growth phase were collected, counted and resuspended in serum-free McCoy, and the cell concentration was adjusted to 4×10^7 cells/mL. The cells were pipetted with a pipette to disperse them evenly, and the cells were put into a 50-mL centrifuge tube, which was placed in an ice box. A 1-mL syringe was used to draw the cell suspension, which was injected subcutaneously into the axilla of the front right limb of a nude mouse. Each animal was inoculated with 100 μL (4×10^6 cells/mouse) to establish a HT-29 transplanted tumor model in nude mice. After the inoculation, the animal status and tumor growth were regularly observed. On D12, the tumor diameter was measured using an electronic vernier caliper. The data were input into an Excel spreadsheet to calculate the tumor volume. Tumor-bearing mice in good health and with similar tumor volumes (103 to 179 mm^3) were selected and divided into groups using randomized block method. After the start of the assay, the tumor diameter was measured regularly, the tumor volume was calculated, and the animal body weight was also weighed and recorded.

SMILES: N.N.[Cl][Pt][Cl] [DDP, cisplatin]
- expression of CyclinD1 [1]: up-regulated
- expression of VEGFA [1]: down-regulated
- expression of VEGFR2 [1]: up-regulated
- expression of anti-apoptotic protein Survivin [1]: down-regulated
- expression of cell cycle regulatory protein P21 [1]: down-regulated
- expression of p-VEGFR2 [1]: down-regulated
- expression of β-catenin [1]: up-regulated
- Mean tumor volume ([2]; D12, DDP 4/2/1/4 mg/kg IP): 155 ± 6 mm^3
- Mean tumor volume ([2]; D16, DDP 4/2/1/4 mg/kg IP): 241 ± 6 mm^3
- tumor growth inhibition rate (TGI) ([2]; D16, DDP 4/2/1/4 mg/kg IP): 15%
- Mean tumor volume ([2]; D19, DDP 4/2/1/4 mg/kg IP): 294 ± 6* mm^3
- tumor growth inhibition rate (TGI) ([2]; D19, DDP 4/2/1/4 mg/kg IP): 18%
- Mean tumor volume ([2]; D23, DDP 4/2/1/4 mg/kg IP): 341 ± 13** mm^3
- tumor growth inhibition rate (TGI) ([2]; D23, DDP 4/2/1/4 mg/kg IP): 28%
- Mean tumor volume ([2]; D26, DDP 4/2/1/4 mg/kg IP): 419 ± 22** mm^3
- tumor growth inhibition rate (TGI) ([2]; D26, DDP 4/2/1/4 mg/kg IP): 34%
- Mean tumor volume ([2]; D30, DDP 4/2/1/4 mg/kg IP): 543 ± 32** mm^3
- tumor growth inhibition rate (TGI) ([2]; D30, DDP 4/2/1/4 mg/kg IP): 40%
- Mean tumor volume ([2]; D33, DDP 4/2/1/4 mg/kg IP): 642 ± 35** mm^3
- tumor growth inhibition rate (TGI) ([2]; D33, DDP 4/2/1/4 mg/kg IP): 39%
- Mean tumor volume ([2]; D37, DDP 4/2/1/4 mg/kg IP): 810 ± 61* mm^3
- tumor growth inhibition rate (TGI) ([2]; D37, DDP 4/2/1/4 mg/kg IP): 36%
- Mean tumor volume ([2]; D40, DDP 4/2/1/4 mg/kg IP): 911 ± 80* mm^3
- tumor growth inhibition rate (TGI) ([2]; D40, DDP 4/2/1/4 mg/kg IP): 36%
- Mean tumor volume ([2]; D44, DDP 4/2/1/4 mg/kg IP): 1035 ± 95* mm^3
- tumor growth inhibition rate (TGI) ([2]; D44, DDP 4/2/1/4 mg/kg IP): 35%
- Serum UREA content, Mean ([3]; DDP 4/2/1/4 mg/kg IP): 10.28 mmol serum^−1
- Serum UREA content, individual animals No1-No6 ([3]; DDP 4/2/1/4 mg/kg IP): 8.06 mmol serum^−1 and 12.81 mmol serum^−1 and 15.45 mmol serum^−1 and 8.28 mmol serum^−1 and 10.47 mmol serum^−1 and 6.62 mmol serum^−1
- Mean tumor volume ± SE ([4]; D 12 (grouping)): 131 ± 8 mm^3
- Mean tumor volume ± SE ([4]; D 15): 178 ± 10 mm^3
- tumor growth inhibition rate ([4]; D 15): (37%)
- Mean tumor volume ± SE ([4]; D 19): 263 ± 11** mm^3
- tumor growth inhibition rate ([4]; D 19): (48%)
- Mean tumor volume ± SE ([4]; D 22): 383 ± 25** mm^3
- tumor growth inhibition rate ([4]; D 22): (36%)
- Mean tumor volume ± SE ([4]; D 26): 484 ± 28** mm^3
- tumor growth inhibition rate ([4]; D 26): (39%)
- Mean tumor volume ± SE ([4]; D 29): 582 ± 25** mm^3
- tumor growth inhibition rate ([4]; D 29): (44%)
- Mean tumor volume ± SE ([4]; D 33): 693 ± 34** mm^3
- tumor growth inhibition rate ([4]; D 33): (48%)
- Mean tumor volume ± SE ([4]; D 36): 777 ± 38** mm^3
- tumor growth inhibition rate ([4]; D 36): (47%)
- Mean tumor volume ± SE ([4]; D 40): 896 ± 56** mm^3
- tumor growth inhibition rate ([4]; D 40): (45%)

SMILES: COC1=C(OC)C(=O)C(CCCCCCCCCCOC(=O)Cc2c(C)n(C(=O)c3ccc(Cl)cc3)c3ccc(OC)cc23)=C(C)C1=O [compound of formula (I)]
- expression of CyclinD1 ([1]; 2 mg/kg): down-regulated; also recorded: downregulated
- expression of PCNA ([1]; 2 mg/kg): up-regulated; also recorded: upregulated
- expression of VEGFA ([1]; 2 mg/kg): down-regulated; also recorded: downregulated
- expression of VEGFR2 ([1]; 2 mg/kg): down-regulated; also recorded: downregulated
- expression of anti-apoptotic protein Survivin ([1]; 2 mg/kg): down-regulated; also recorded: downregulated
- expression of cell cycle regulatory protein P21 ([1]; 2 mg/kg): up-regulated; also recorded: upregulated
- expression of p-VEGFR2 ([1]; 2 mg/kg): down-regulated; also recorded: downregulated
- expression of pro-apoptotic Bax ([1]; 2 mg/kg): down-regulated; also recorded: downregulated
- expression of β-catenin ([1]; 2 mg/kg): down-regulated; also recorded: downregulated
- Mean tumor volume ([2]; D12, R01 16 mg/kg PO QD×32): 155 ± 4 mm^3
- Mean tumor volume ([2]; D16, R01 16 mg/kg PO QD×32): 200 ± 6** mm^3
- tumor growth inhibition rate (TGI) ([2]; D16, R01 16 mg/kg PO QD×32): 29%
- Mean tumor volume ([2]; D19, R01 16 mg/kg PO QD×32): 263 ± 14** mm^3
- tumor growth inhibition rate (TGI) ([2]; D19, R01 16 mg/kg PO QD×32): 27%
- Mean tumor volume ([2]; D23, R01 16 mg/kg PO QD×32): 336 ± 18** mm^3
- tumor growth inhibition rate (TGI) ([2]; D23, R01 16 mg/kg PO QD×32): 30%
- Mean tumor volume ([2]; D26, R01 16 mg/kg PO QD×32): 421 ± 26** mm^3
- tumor growth inhibition rate (TGI) ([2]; D26, R01 16 mg/kg PO QD×32): 33%
- Mean tumor volume ([2]; D30, R01 16 mg/kg PO QD×32): 509 ± 46** mm^3
- tumor growth inhibition rate (TGI) ([2]; D30, R01 16 mg/kg PO QD×32): 43%
- Mean tumor volume ([2]; D33, R01 16 mg/kg PO QD×32): 577 ± 52** mm^3
- tumor growth inhibition rate (TGI) ([2]; D33, R01 16 mg/kg PO QD×32): 45%
- Mean tumor volume ([2]; D37, R01 16 mg/kg PO QD×32): 681 ± 63** mm^3
- tumor growth inhibition rate (TGI) ([2]; D37, R01 16 mg/kg PO QD×32): 46%
- Mean tumor volume ([2]; D40, R01 16 mg/kg PO QD×32): 758 ± 74** mm^3
- tumor growth inhibition rate (TGI) ([2]; D40, R01 16 mg/kg PO QD×32): 47%
- Mean tumor volume ([2]; D44, R01 16 mg/kg PO QD×32): 871 ± 94** mm^3
- tumor growth inhibition rate (TGI) ([2]; D44, R01 16 mg/kg PO QD×32): 45%
- effect on growth of the NCI-N87 transplanted tumor (summary) ([2]; R01 alone 16 mg/kg QD, combinations: R01 3, 6, 16 mg/kg (QD) with DDP): significant inhibitory effect
- Serum UREA content, Mean ([3]; mouse, in vivo, po, 16 mg/kg): 7.83 mmol serum^−1
- Mean tumor volume ± SE ([4]; D 12 (grouping)): 134 ± 9 mm^3
- Mean tumor volume ± SE ([4]; D 15): 178 ± 7 mm^3
- tumor growth inhibition rate ([4]; D 15): (40%)
- Mean tumor volume ± SE ([4]; D 19): 280 ± 9** mm^3
- tumor growth inhibition rate ([4]; D 19): (42%)
- Mean tumor volume ± SE ([4]; D 22): 393 ± 19** mm^3
- tumor growth inhibition rate ([4]; D 22): (34%)
- Mean tumor volume ± SE ([4]; D 26): 532 ± 31** mm^3
- tumor growth inhibition rate ([4]; D 26): (31%)
- Mean tumor volume ± SE ([4]; D 29): 631 ± 40** mm^3
- tumor growth inhibition rate ([4]; D 29): (38%)
- Mean tumor volume ± SE ([4]; D 33): 832 ± 59** mm^3
- tumor growth inhibition rate ([4]; D 33): (36%)
- Mean tumor volume ± SE ([4]; D 36): 903 ± 73** mm^3
- tumor growth inhibition rate ([4]; D 36): (37%)
- Mean tumor volume ± SE ([4]; D 40): 1070 ± 94** mm^3
- tumor growth inhibition rate ([4]; D 40): (33%)
- anti-tumor effect in combination with cisplatin (summary) ([4]; HT-29 transplanted tumor model in nude mice): synergistic anti-tumor effect
